# Data published in patent US9995734B2, “Human T cell line assay for evaluating the immunologic identity of glatiramer acetate preparations” (Mylan Inc., priority 2013, dated 2018).
# Test system: Donor 1 COP T-Cell Lines
# Experiment: Multiplex bead cytokine assay (FlowCytoMix), Donor 1 COP T-cell lines
# Format: cell-based, human
# Description: Culture medium was removed from cultures prepared as for proliferation assay and utilized to measure cytokine production. In most cases culture medium was collected 18-24 hours after mixing T-cells, APC, and stimulating antigen. Cytokine production was measured by ELISA or bead assay. For measuring cytokine production, 100-150 μL culture medium (100 μL if culture was to be continued, otherwise 150 μL) was removed from each well. In some cases, the culture was continued 48 hours, for a total of 72 hours of culture, and the proliferative response measured.
# The concentration of multiple cytokines was measured simultaneously using FlowCytoMix™ kits (eBioscience, San Diego Calif.). These are fluorescent bead based assays consisting of beads conjugated to anti cytokine antibodies. Beads specific for each cytokine are distinguished by size and fluorescence at 670 run. Cytokine bound to each bead is detected using a phycoerythrin conjugated antibody so that the fluorescence at 585 nm reflects the concentration of cytokine in the sample. Two kits were utilized which measured different cytokine panels. The TH1/TH2 kit measures IFN-γ, IL-1β, IL-2, IL-4, IL-5, IL-6, IL-8, IL-10, IL-12p70, TNF-α (TNF) and TNF-β (LT). The TH1/TH2/TH9/TH17/TH22 kit measures […], IL-1β, IL-2, IL-4, IL-5, IL-6, IL-9, IL-10, IL-12p70, IL-13, IL-17, IL-22, and TNF-α (TNF). Both kits were used following the manufacturer's instructions.
# IL-12p70, IFN-γ, IL-2, IL-10, IL-8, IL-6, IL-5, IL-4, IL-1β, TNF-α (TNF), and TNF-β (LT) secretion were measured in response to stimulation with 1, 3, or 10 μg/mL GMA, or 1, 3, or 10 μg/mL COP, as well as a no-antigen control and an MBP control, in the presence of autologous EBV-transformed B-LCL.
# [1] = 222-1C5, 1 μg/mL, 24 hours after Day 56 restimulation
# [2] = 222-1C5, 3 μg/mL, 24 hours after Day 56 restimulation
# [3] = 222-1C5, 10 μg/mL, 24 hours after Day 56 restimulation
# [4] = 222-1C5, 10 μg/mL, Day 34 supernatants
# [5] = 222-1H12, 10 μg/mL, Day 34 supernatants
# [6] = 222-2B8, 1 μg/mL, 24 hours after Day 56 restimulation
# [7] = 222-2B8, 3 μg/mL, 24 hours after Day 56 restimulation
# [8] = 222-2B8, 10 μg/mL, 24 hours after Day 56 restimulation
# [9] = 222-2D2, 10 μg/mL, Day 34 supernatants
# [10] = 222-2D8, 10 μg/mL, Day 34 supernatants
# [11] = 222-2E1, 1 μg/mL, 24 hours after Day 56 restimulation
# [12] = 222-2E1, 3 μg/mL, 24 hours after Day 56 restimulation
# [13] = 222-2E1, 10 μg/mL, 24 hours after Day 56 restimulation
# [14] = 222-B11 (so in the source), 1 μg/mL, 24 hours after Day 56 restimulation
# [15] = 222-B11 (so in the source), 3 μg/mL, 24 hours after Day 56 restimulation
# [16] = 222-B11 (so in the source), 10 μg/mL, 24 hours after Day 56 restimulation
substance,measurement,setting,value
glatiramer acetate [GMA],IFN-γ,[1],181 pg/mL
same,IL-2,[1],30 pg/mL
same,IL-5,[1],0 pg/mL
same,IL-10,[1],11 pg/mL
same,IL-13,[1],154 pg/mL
same,IL-22,[1],39 pg/mL
same,TNF-α,[1],3 pg/mL
same,IFN-γ,[2],325 pg/mL
same,IL-2,[2],83 pg/mL
same,IL-5,[2],0 pg/mL
same,IL-10,[2],38 pg/mL
same,IL-13,[2],316 pg/mL
same,IL-22,[2],101 pg/mL
same,TNF-α,[2],72 pg/mL
same,IFN-γ,[3],664 pg/mL
same,IL-2,[3],0 pg/mL
same,IL-5,[3],0 pg/mL
same,IL-10,[3],55 pg/mL
same,IL-13,[3],942 pg/mL
same,IL-22,[3],0 pg/mL
same,TNF-α,[3],80 pg/mL
same,IFN-γ,[4],511.42 pg/mL
same,IL-1β,[4],94.12 pg/mL
same,IL-2,[4],185.35 pg/mL
same,IL-5,[4],67.83 pg/mL
same,IL-8,[4],<= 0 pg/mL
same,IL-10,[4],77.88 pg/mL
same,TNF-α,[4],31.35 pg/mL
same,TNF-β,[4],29.94 pg/mL
same,IFN-γ,[5],3138 pg/mL
same,IL-1β,[5],20 pg/mL
same,IL-2,[5],152 pg/mL
same,IL-4,[5],99 pg/mL
same,IL-5,[5],336 pg/mL
same,IL-10,[5],234 pg/mL
same,TNF-α,[5],83 pg/mL
same,TNF-β,[5],102 pg/mL
same,IFN-γ,[6],1.88 pg/mL
same,IL-2,[6],0 pg/mL
same,IL-5,[6],0 pg/mL
same,IL-10,[6],0 pg/mL
same,IL-13,[6],183.09 pg/mL
same,IL-22,[6],0 pg/mL
same,TNF-α,[6],0 pg/mL
same,IFN-γ,[7],44.52 pg/mL
same,IL-2,[7],1.6 pg/mL
same,IL-5,[7],78.29 pg/mL
same,IL-10,[7],1.8 pg/mL
same,IL-13,[7],1214.45 pg/mL
same,IL-22,[7],63.98 pg/mL
same,TNF-α,[7],0 pg/mL
same,IFN-γ,[8],140.65 pg/mL
same,IL-2,[8],0 pg/mL
same,IL-5,[8],400.46 pg/mL
same,IL-10,[8],41 pg/mL
same,IL-13,[8],3162.51 pg/mL
same,IL-22,[8],124.15 pg/mL
same,TNF-α,[8],96.57 pg/mL
same,IFN-γ,[9],53.75 pg/mL
same,IL-1β,[9],103.85 pg/mL
same,IL-2,[9],55.42 pg/mL
same,IL-5,[9],29.13 pg/mL
same,IL-8,[9],<= 0 pg/mL
same,IL-10,[9],26.12 pg/mL
same,TNF-α,[9],5.35 pg/mL
same,TNF-β,[9],5.79 pg/mL
same,"IL-4, IL-6, or IL-12 detected","222-2D8, 222-1H12, 222-1C5, 222-2D2, Day 34 supernatants",Little or no
same,IFN-γ,[10],2616 pg/mL
same,IL-1β,[10],2420 pg/mL
same,IL-2,[10],52 pg/mL
same,IL-4,[10],41 pg/mL
same,IL-5,[10],1501 pg/mL
same,IL-10,[10],107 pg/mL
same,TNF-α,[10],405 pg/mL
same,TNF-β,[10],243 pg/mL
same,IFN-γ,[11],49.11 pg/mL
same,IL-2,[11],0 pg/mL
same,IL-5,[11],0 pg/mL
same,IL-10,[11],0 pg/mL
same,IL-13,[11],146.02 pg/mL
same,IL-22,[11],21.77 pg/mL
same,TNF-α,[11],9.36 pg/mL
same,IFN-γ,[12],162.68 pg/mL
same,IL-2,[12],0 pg/mL
same,IL-5,[12],0 pg/mL
same,IL-10,[12],7.1 pg/mL
same,IL-13,[12],1050.77 pg/mL
same,IL-22,[12],25.71 pg/mL
same,TNF-α,[12],65.44 pg/mL
same,IFN-γ,[13],349.76 pg/mL
same,IL-2,[13],0 pg/mL
same,IL-5,[13],128.4 pg/mL
same,IL-10,[13],16.33 pg/mL
same,IL-13,[13],2036.36 pg/mL
same,IL-22,[13],0 pg/mL
same,TNF-α,[13],170.24 pg/mL
same,IFN-γ,[14],0 pg/mL
same,IL-2,[14],0 pg/mL
same,IL-5,[14],0 pg/mL
same,IL-10,[14],1.3 pg/mL
same,IL-13,[14],29.41 pg/mL
same,IL-22,[14],42.51 pg/mL
same,TNF-α,[14],0 pg/mL
same,IFN-γ,[15],0 pg/mL
same,IL-2,[15],0 pg/mL
same,IL-5,[15],0 pg/mL
same,IL-10,[15],0 pg/mL
same,IL-13,[15],133.55 pg/mL
same,IL-22,[15],51.87 pg/mL
same,TNF-α,[15],0 pg/mL
same,IFN-γ,[16],37.79 pg/mL
same,IL-2,[16],0 pg/mL
same,IL-5,[16],94.56 pg/mL
same,IL-10,[16],0.4 pg/mL
same,IL-13,[16],1563.22 pg/mL
same,IL-22,[16],0 pg/mL
same,TNF-α,[16],0 pg/mL
same,IFN-γ production,"Line 105 (so in the source), Table 14 = 222-1C5, after appropriate dilution of supernatants",comparable amounts
